Several values for one entry are separate records, joined by “and”; a condition that tells them apart may be missing. Equal entries are not always repeated.
Test system: Plasmodium falciparum
Test: GSK_TCMDC: Inhibition of Plasmodium falciparum 3D7 in whole erythrocytes, using parasite LDH activity as an index of growth.
Format: functional, organism-based

Compound: Cc1cc(C2CCN(CCCCNC(=O)c3ccc(NC(=O)c4ccc(Cl)cc4)cc3)CC2)c(C)cc1OCc1ccccn1
- XC50 (Plasmodium falciparum, 3D7): 0.801 µM

Compound: O=C(C1CCCCC1)N1CCOC(CCN2CCC(c3ccccc3)CC2)(c2ccc(Cl)c(Cl)c2)C1 (stereo not drawn)
- XC50 (Plasmodium falciparum, 3D7): 0.93 µM

Compound: FC(F)(F)COc1c(CNCCCCCCNCc2ccc3ccccc3c2OCC(F)(F)F)ccc2ccccc12
- XC50 (Plasmodium falciparum, 3D7): 0.761 µM

Compound: CCCC(C)Nc1nc(C)cc(N[C@@H](Cc2ccccc2)C(=O)NCCc2ccccc2)n1 (stereo partly drawn)
- XC50 (Plasmodium falciparum, 3D7): 0.954 µM

Compound: COc1ccc(C(=O)NC2CCN(c3ccnc4cc(Cl)ccc34)C2)cc1 (stereo not drawn)
- XC50 (Plasmodium falciparum, 3D7): 0.231 µM

Compound: CN(C)c1ccc(CN2CCC(CNC(=O)c3cc(-c4ccccc4Cl)cs3)C2)cc1 (stereo not drawn)
- XC50 (Plasmodium falciparum, 3D7): 1.44 µM

Compound: CCC1(CC)N=C(N)N=C(N)C1c1ccc(Cl)c(Cl)c1 (stereo not drawn)
- XC50 (Plasmodium falciparum, 3D7): 0.38 µM

Compound: Cc1c(C(=O)N2CCCC(C(F)(F)F)C2)sc2cccc(F)c12 (stereo not drawn)
- XC50 (Plasmodium falciparum, 3D7): 0.599 µM

Compound: Cc1cccc(-c2nc(Nc3ccncc3)c3cc(N(C)C)ccc3n2)n1
- XC50 (Plasmodium falciparum, 3D7): 0.71 µM

Compound: C=CCc1ccc(C2CCN(CCCCNC(=O)c3ccc(NC(=O)c4ccc(Cl)cc4)cc3)CC2)cc1
- XC50 (Plasmodium falciparum, 3D7): 1.12 µM

Compound: CCCc1cc(NC2CCN(C)CC2)nc(Nc2ccc(C)cc2)n1
- XC50 (Plasmodium falciparum, 3D7): 0.898 µM

Compound: O=C(NC1CCN(CC2(c3ccccc3F)CCCC2)CC1)c1cc[nH]n1
- XC50 (Plasmodium falciparum, 3D7): 0.997 µM

Compound: Nc1cc(-c2ccc(Br)cc2O)nc2ccccc12
- XC50 (Plasmodium falciparum, 3D7): 0.619 µM

Compound: NCc1cccc(-c2ccc(CNC3CCN(Cc4ccccc4)CC3)cc2)c1
- XC50 (Plasmodium falciparum, 3D7): 1.7 µM

Compound: O=C(N[C@@H](CC1CCCCC1)C(=O)NCc1cccc(C(F)(F)F)c1)c1ccc(O)c(-c2ccc(Cl)c(Cl)c2)c1
- XC50 (Plasmodium falciparum, 3D7): 0.224 µM

Compound: CN1CCC(NCc2ccc(-c3ccc(S(=O)(=O)NCc4ccccc4)cc3)cc2)CC1
- XC50 (Plasmodium falciparum, 3D7): 0.832 µM

Compound: COc1cccc(-c2nc3c(N4CCN(c5ccncc5)CC4)cccc3n2CC2CCCCCN2)n1 (stereo not drawn)
- XC50 (Plasmodium falciparum, 3D7): 1.06 µM

Compound: COc1ccc(Nc2nccc(-c3ccc4ccnc(NCCCCN)c4c3)n2)cc1
- XC50 (Plasmodium falciparum, 3D7): 0.75 µM

Compound: O=C(CCCCCNC(=O)c1ccc(O)c(-c2ccc(Cl)c(Cl)c2)c1)NCCN1CCCCC1
- XC50 (Plasmodium falciparum, 3D7): 0.886 µM

Compound: CC(C)(C)OC(=O)N[C@@H](Cc1ccccc1)C(=O)Nc1cccc(-c2cccc(NC(=O)[C@H](Cc3ccccc3)NC(=O)OC(C)(C)C)c2)c1
- XC50 (Plasmodium falciparum, 3D7): 0.609 µM

Compound: CC1(C)[C@H]2CC[C@@H](CNc3nc(NCCc4c[nH]cn4)nc(Nc4ccc5c(c4)OCO5)n3)[C@@H]1C2
- XC50 (Plasmodium falciparum, 3D7): 0.537 µM

Compound: CN(C(=O)/C=C/c1c(Cl)cccc1Cl)C1CCN(CCCCCNC(=O)/C=C/c2ccc(Cl)c(Cl)c2)CC1
- XC50 (Plasmodium falciparum, 3D7): 0.36 µM

Compound: COc1ccc(NC(=O)[C@H](CC(C)C)Nc2cc(C)nc(NCc3ccccc3C)n2)cc1
- XC50 (Plasmodium falciparum, 3D7): 0.888 µM

Compound: COc1ccc(S(=O)(=O)N2CCC3(CC2)OCC(=O)NC3c2ccc(Cl)c(Cl)c2)cc1 (stereo not drawn)
- XC50 (Plasmodium falciparum, 3D7): 0.644 µM

Compound: CN1CCN(CC(=O)Nc2cccc(-c3ccc(-c4nc5cc(C(F)(F)F)ccc5[nH]4)cc3)c2)CC1
- XC50 (Plasmodium falciparum, 3D7): 0.52 µM

Compound: COc1ccc(NS(=O)(=O)c2cc(NC(=O)Cn3ccccc3=O)ccc2N2CCCCC2)cc1
- XC50 (Plasmodium falciparum, 3D7): 0.695 µM

Compound: CCOC(=O)NC1=NC(=N)N(OCc2ccc(Cl)c(Cl)c2)C(C)(C)N1
- XC50 (Plasmodium falciparum, 3D7): 0.0407 µM

Compound: COc1ccc2c(N/N=C/c3ccc([N+](=O)[O-])cc3)ccnc2c1
- XC50 (Plasmodium falciparum, 3D7): 0.337 µM

Compound: O=S(=O)(NC1CCN(c2ccnc3cc(Cl)ccc23)C1)c1ccc(F)cc1 (stereo not drawn)
- XC50 (Plasmodium falciparum, 3D7): 0.475 µM

Compound: Cc1ccc(OC2CCN(c3ccc(C(=O)NC4CC4)cn3)CC2)cc1
- XC50 (Plasmodium falciparum, 3D7): 1.3 µM

Compound: CN(C)CC(O)C(O)(c1ccccc1)c1ccc(F)cc1 (stereo not drawn)
- XC50 (Plasmodium falciparum, 3D7): 1.15 µM

Compound: COc1ccc2nccc(N3CCC(CCNCc4ccc5c(n4)NC(=O)CS5)CC3)c2c1
- XC50 (Plasmodium falciparum, 3D7): 0.209 µM

Compound: O=C(NC1CCC(CN2CCC(c3c[nH]c4ccccc34)CC2)CC1)c1ccc(-c2ccccc2[N+](=O)[O-])o1 (stereo not drawn)
- XC50 (Plasmodium falciparum, 3D7): 0.772 µM

Compound: CN(C)c1ccc(-c2csc(C(=O)NC3CCCCN(Cc4ccc(C(C)(C)C)cc4)C3)c2)cc1 (stereo not drawn)
- XC50 (Plasmodium falciparum, 3D7): 1.11 µM

Compound: O=C(Nc1cccc([N+](=O)[O-])c1)Nc1ccc(Cl)c(C(F)(F)F)c1
- XC50 (Plasmodium falciparum, 3D7): 1.12 µM

Compound: CC(C)CNCc1ccc(-c2cccc(CN(CCN(C)C)C(=O)NCCc3ccccc3)c2)cc1
- XC50 (Plasmodium falciparum, 3D7): 1.06 µM

Compound: CC(=O)N(C)c1ccc(C(=O)Nc2cccc(-c3cccc(-c4nc5cc(C(F)(F)F)ccc5[nH]4)c3)c2)cc1
- XC50 (Plasmodium falciparum, 3D7): 0.314 µM

Compound: Cc1c(-c2ccc(C(=O)NC3CC(C)(C)NC(C)(C)C3)cc2)[nH]c2cc(Cl)c(Cl)cc12
- XC50 (Plasmodium falciparum, 3D7): 0.751 µM

Compound: CC(C)N1CCC(Oc2ccc(CN3CCN(C(c4ccccc4)c4ccc(Cl)cc4)CC3)cc2)CC1 (stereo not drawn)
- XC50 (Plasmodium falciparum, 3D7): 0.937 µM

Compound: O=C(c1ccccc1)C1CC1CN1CC=C(c2c[nH]c3ccccc23)CC1 (stereo not drawn)
- XC50 (Plasmodium falciparum, 3D7): 0.525 µM

Compound: COc1cc(N(Cc2ccc(F)cc2)C(=O)c2ccc(-c3ccccc3)cc2)ccc1OCCN1CCCC1
- XC50 (Plasmodium falciparum, 3D7): 0.83 µM

Compound: O=C(NC1CCCC1)c1ccc(N2CCC(NCc3cccc(C(F)(F)F)c3)CC2)cc1
- XC50 (Plasmodium falciparum, 3D7): 1.33 µM

Compound: COC(=O)c1cccc(CNCc2ccc(-c3ccc(-c4nc5cccc(C)c5[nH]4)cc3)cc2)c1
- XC50 (Plasmodium falciparum, 3D7): 0.283 µM

Compound: COc1ccc2nccc([C@@H](O)CN3CCC(NCCOc4c(C)cccc4F)CC3)c2c1
- XC50 (Plasmodium falciparum, 3D7): 0.347 µM

Compound: Fc1ccc2[nH]c3c(NCCCN4CCOCC4)ncnc3c2c1
- XC50 (Plasmodium falciparum, 3D7): 0.714 µM

Compound: CC(Cc1ccc(Oc2ccccc2)cc1)NCC(O)c1cccc(C(F)(F)F)c1 (stereo not drawn)
- XC50 (Plasmodium falciparum, 3D7): 0.674 µM

Compound: CCCCc1cc(NCc2ccncc2)nc(Nc2ccc(OC)cc2)n1
- XC50 (Plasmodium falciparum, 3D7): 1.06 µM

Compound: COc1ccc2ncc(C#N)c(CCN3CCC(NCc4cnc5c(c4)OCCO5)CC3)c2n1
- XC50 (Plasmodium falciparum, 3D7): 0.595 µM

Compound: C#Cc1cccc(NC(=O)[C@H](CC2CCCCC2)Nc2ccc(C#N)c3ccccc23)c1
- XC50 (Plasmodium falciparum, 3D7): 0.588 µM

Compound: Cn1nc(-c2ccc(NC(=O)Nc3cc(C(F)(F)F)ccc3F)c(F)c2)c2cnc(NCCCn3ccnc3)nc21
- XC50 (Plasmodium falciparum, 3D7): 0.736 µM

Compound: COc1ccccc1CNc1ncc(-c2ccsc2)c(-c2nccs2)n1
- XC50 (Plasmodium falciparum, 3D7): 0.333 µM

Compound: COc1ccc(-c2ccc(CNCc3ccsc3)cc2)cc1S(=O)(=O)NCCN1CCCC1
- XC50 (Plasmodium falciparum, 3D7): 0.794 µM

Compound: COc1ccc2nccc(N3CCN(CCNCc4ccc5c(n4)NC(=O)CO5)CC3)c2c1
- XC50 (Plasmodium falciparum, 3D7): 1.16 µM

Compound: CCN(CC)CCN(Cc1ccc(-c2ccc(C(F)(F)F)cc2)cc1)C(=O)Cn1c(CCC2CCCCC2)nc(=O)c2ccccc21
- XC50 (Plasmodium falciparum, 3D7): 1.39 µM

Compound: CCc1ccc(-n2c(NC(=O)c3ccccc3)nc3ccc(S(=O)(=O)NC(C)C(C)C)cc32)cc1 (stereo not drawn)
- XC50 (Plasmodium falciparum, 3D7): 0.926 µM

Compound: O=C(NCc1cccc(CN2CCOCC2)c1)c1cc(Br)cc(N2CCN(c3ccncc3)CC2)c1
- XC50 (Plasmodium falciparum, 3D7): 0.858 µM

Compound: CC(C)CNc1nc(N)nc2ccc3c(ccn3CC(C)C)c12
- XC50 (Plasmodium falciparum, 3D7): 0.649 µM

Compound: CCOc1ccc(Br)cc1/C=C/C(=O)Nc1ccc2c(c1)CN(C)CCC2
- XC50 (Plasmodium falciparum, 3D7): 0.824 µM

Compound: CC(=O)Nc1cccc(CN(Cc2ccc(-c3ccc(CNCc4cccnc4)cn3)cc2)C(=O)Cc2cccnc2)c1
- XC50 (Plasmodium falciparum, 3D7): 0.82 µM

Compound: Cc1ccc(-n2c(Cc3cccc4ccccc34)nnc2SCCC#N)c(C)c1
- XC50 (Plasmodium falciparum, 3D7): 0.465 µM

Compound: Cc1cccc(-c2ccc(NC(=O)Nc3ccc4nccc(N5CCN(C)CC5)c4c3)cc2C)n1
- XC50 (Plasmodium falciparum, 3D7): 0.212 µM

Compound: Cc1cccc2nc(-c3ccc(-c4ccc(CN5CC(C)OC(C)C5)cc4)cc3)[nH]c12 (stereo not drawn)
- XC50 (Plasmodium falciparum, 3D7): 0.523 µM

Compound: O=C(NCCCCN1CCN(c2cccc3ccccc23)CC1)c1ccc(NC(=O)c2ccc(Cl)cc2)cc1
- XC50 (Plasmodium falciparum, 3D7): 0.358 µM

Compound: O=C(/C=C/c1ccc(Cl)c(Cl)c1)N1CCCC(CCCN2CCC(c3c[nH]c4ccccc34)CC2)C1 (stereo not drawn)
- XC50 (Plasmodium falciparum, 3D7): 1.09 µM

Compound: O=C(/C=C/c1ccc(Cl)c(Cl)c1)NCCCCCCN1CCCN(C(=O)Nc2ccc(F)c(Cl)c2)CC1
- XC50 (Plasmodium falciparum, 3D7): 0.738 µM

Compound: Oc1ccc(-c2nc(-c3ccc4oc5ccc(-c6[nH]c(-c7ccc(O)cc7)nc6-c6ccccc6)cc5c4c3)c(-c3ccccc3)[nH]2)cc1
- XC50 (Plasmodium falciparum, 3D7): 1.11 µM

Compound: COc1ccccc1C(=O)Nc1ccc(Nc2nc(C)cc(N3CCOCC3)n2)cc1
- XC50 (Plasmodium falciparum, 3D7): 0.528 µM

Compound: O=C(/C=C/c1ccc(Cl)cc1)NCCCCCN1CCC(C(=O)Nc2cccc(Cl)c2)CC1
- XC50 (Plasmodium falciparum, 3D7): 0.853 µM

Compound: FC(F)(F)c1ccc2[nH]c(-c3ccc(-c4cccc(CNCCN5CCNCC5)c4)s3)nc2c1
- XC50 (Plasmodium falciparum, 3D7): 1.04 µM

Compound: CCN1CCC(N(Cc2ccc(-c3ccc(C(F)(F)F)cc3)cc2)C(=O)Cn2c(CCc3cccc(F)c3F)nc(=O)c3ccccc32)CC1
- XC50 (Plasmodium falciparum, 3D7): 1.06 µM

Compound: CC(C)NCc1cccc(-c2ccc(NS(=O)(=O)c3cccc4cccnc34)cc2)c1
- XC50 (Plasmodium falciparum, 3D7): 1.08 µM

Compound: Oc1ccc(Cl)cc1CN1CCC2(CCCN(CC3CCC3)C2)C1 (stereo not drawn)
- XC50 (Plasmodium falciparum, 3D7): 0.368 µM

Compound: Cc1ccc2nc(C)n(C3CCN(C(=O)Cc4ccc(F)c(F)c4)CC3)c2c1
- XC50 (Plasmodium falciparum, 3D7): 0.474 µM

Compound: Cc1ccc(-c2ccc3c(c2)C=C(C(=O)NCC2CCN(CC4CCN(C(=O)/C=C/c5ccc(Cl)c(Cl)c5)CC4)CC2)CCC3)cc1
- XC50 (Plasmodium falciparum, 3D7): 0.777 µM

Compound: COc1cc(C(=O)Nc2ccc3nc(N4CCN(C)CC4)cc(C)c3c2)cc(OC)c1OC
- XC50 (Plasmodium falciparum, 3D7): 0.289 µM

Compound: O=C(NCCCCN1CCC(c2ccc3c(c2OCC2COCO2)CCCC3)CC1)c1ccc(-c2ccc(C(F)(F)F)cc2)cc1 (stereo not drawn)
- XC50 (Plasmodium falciparum, 3D7): 0.868 µM

Compound: CCc1cn2c3c(cc(C(=O)N[C@@H](Cc4ccccc4)[C@H](O)CNC4CCCC4)cc13)N(C)S(=O)(=O)CC2
- XC50 (Plasmodium falciparum, 3D7): 0.0469 µM

Compound: N#Cc1ccc(N/C(=N\c2ccccc2Cl)NC2CCN(Cc3ccccc3)CC2)c(O)c1
- XC50 (Plasmodium falciparum, 3D7): 0.3 µM

Compound: FC(F)(F)c1ccc2[nH]c(-c3ccc(-c4ccc(CNCc5ccccc5)cc4)cc3)nc2c1
- XC50 (Plasmodium falciparum, 3D7): 0.143 µM

Compound: CCN(CC)CCOc1ccc(C(O)(C#CC(O)(c2ccc(Br)cc2)c2ccc(OCCN(CC)CC)cc2)c2ccc(Br)cc2)cc1 (stereo not drawn)
- XC50 (Plasmodium falciparum, 3D7): 0.616 µM

Compound: COc1ccc2ncc(F)c(CCN3CC(O)C(CNCc4nc5c(cc4Cl)OCC(=O)N5)C3)c2n1 (stereo not drawn)
- XC50: 1.28 µM and 0.954 µM
- XC50 (Plasmodium falciparum, 3D7): 0.83 µM

Compound: Cc1cc(NC(=O)NCCN2CCC(NS(=O)(=O)c3ccccc3Cl)C2)c2ccccc2n1 (stereo not drawn)
- XC50 (Plasmodium falciparum, 3D7): 0.815 µM
